Two compounds from ChEMBL document CHEMBL4428125, “8-Substituted 1,3-dimethyltetrahydropyrazino[2,1-f]purinediones: Water-soluble adenosine receptor antagonists and monoamine oxidase B inhibitors” (Bioorg Med Chem, 2016) can be followed below.

Assay [1] has as its target T1, Adenosine receptor A3 (Homo sapiens) (UniProt P0DMS8).
T1 sequence (whole entry): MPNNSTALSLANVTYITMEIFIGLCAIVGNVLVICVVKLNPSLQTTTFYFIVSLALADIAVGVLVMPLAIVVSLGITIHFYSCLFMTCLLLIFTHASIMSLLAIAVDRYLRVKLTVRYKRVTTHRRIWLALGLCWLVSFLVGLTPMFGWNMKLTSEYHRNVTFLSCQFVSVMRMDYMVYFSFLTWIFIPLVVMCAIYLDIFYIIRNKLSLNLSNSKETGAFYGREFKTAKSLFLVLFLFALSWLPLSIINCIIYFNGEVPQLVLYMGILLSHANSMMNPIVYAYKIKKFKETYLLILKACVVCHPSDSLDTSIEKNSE
Briefly: Displacement of [3H]PSB-11 from human A3 receptor expressed in CHO cell membrane at 10 uM by liquid scintillation counting method relative to control relative to control. The format is cell membranes. Background: Loss of bound radioactivity is the signal in a displacement assay; it reports binding, not function.

For assay [2], the target named is T2, Adenosine receptor A2b (Homo sapiens) (UniProt P29275).
T2 sequence (whole entry): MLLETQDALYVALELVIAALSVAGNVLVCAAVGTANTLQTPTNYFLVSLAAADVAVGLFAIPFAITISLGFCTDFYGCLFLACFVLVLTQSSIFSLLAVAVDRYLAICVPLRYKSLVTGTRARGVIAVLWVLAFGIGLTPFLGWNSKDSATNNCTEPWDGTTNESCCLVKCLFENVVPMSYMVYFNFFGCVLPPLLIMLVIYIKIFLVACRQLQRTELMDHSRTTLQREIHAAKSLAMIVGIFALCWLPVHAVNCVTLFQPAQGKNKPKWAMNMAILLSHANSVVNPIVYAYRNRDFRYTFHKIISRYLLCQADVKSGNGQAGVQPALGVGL
Briefly: Displacement of [3H]PSB-603 from human A2B receptor expressed in CHO cell membrane at 1 uM relative to control. The format is cell membranes.

The target in assay [3] is T3, Adenosine receptor A1 (Homo sapiens) (UniProt P30542).
T3 sequence (whole entry): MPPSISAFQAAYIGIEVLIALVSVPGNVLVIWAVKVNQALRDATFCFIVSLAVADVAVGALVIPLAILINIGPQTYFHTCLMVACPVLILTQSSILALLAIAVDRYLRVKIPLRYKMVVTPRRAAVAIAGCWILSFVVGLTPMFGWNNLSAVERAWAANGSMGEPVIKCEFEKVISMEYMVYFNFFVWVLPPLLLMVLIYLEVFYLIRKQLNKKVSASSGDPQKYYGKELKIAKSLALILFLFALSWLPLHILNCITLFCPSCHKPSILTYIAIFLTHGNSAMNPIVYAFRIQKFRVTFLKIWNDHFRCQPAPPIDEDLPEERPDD
The assay is described as follows: Displacement of [3H]CCPA from human A1 receptor expressed in CHO cell membrane at 10 uM by liquid scintillation counting method. The class given is cell membranes.

Assay [4] concerns the target T4, Adenosine receptor A2a (Homo sapiens, UniProt P29274). Briefly: Displacement of [3H]MSX from human A2A receptor measured after 30 mins by liquid scintillation counting method.
The target in assay [5] is T5, Adenosine receptor A1 (Rattus norvegicus) (UniProt P25099).
T5 sequence (whole entry): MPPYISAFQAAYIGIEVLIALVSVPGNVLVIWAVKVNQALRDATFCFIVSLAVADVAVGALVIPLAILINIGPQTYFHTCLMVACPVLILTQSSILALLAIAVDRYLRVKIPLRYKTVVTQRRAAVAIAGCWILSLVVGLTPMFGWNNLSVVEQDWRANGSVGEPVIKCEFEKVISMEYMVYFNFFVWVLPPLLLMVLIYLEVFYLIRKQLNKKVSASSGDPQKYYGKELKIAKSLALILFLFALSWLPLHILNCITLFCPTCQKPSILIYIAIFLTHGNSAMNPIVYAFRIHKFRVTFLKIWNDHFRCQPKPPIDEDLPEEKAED
Briefly: Displacement of [3H]CCPA from A1 receptor in rat brain cortex membranes at 1.5 uM by liquid scintillation counting method. The format is cell membranes.

The target in assay [6] is T6, Amine oxidase [flavin-containing] A (Homo sapiens, UniProt P21397).
T6 sequence (P21397 whole entry): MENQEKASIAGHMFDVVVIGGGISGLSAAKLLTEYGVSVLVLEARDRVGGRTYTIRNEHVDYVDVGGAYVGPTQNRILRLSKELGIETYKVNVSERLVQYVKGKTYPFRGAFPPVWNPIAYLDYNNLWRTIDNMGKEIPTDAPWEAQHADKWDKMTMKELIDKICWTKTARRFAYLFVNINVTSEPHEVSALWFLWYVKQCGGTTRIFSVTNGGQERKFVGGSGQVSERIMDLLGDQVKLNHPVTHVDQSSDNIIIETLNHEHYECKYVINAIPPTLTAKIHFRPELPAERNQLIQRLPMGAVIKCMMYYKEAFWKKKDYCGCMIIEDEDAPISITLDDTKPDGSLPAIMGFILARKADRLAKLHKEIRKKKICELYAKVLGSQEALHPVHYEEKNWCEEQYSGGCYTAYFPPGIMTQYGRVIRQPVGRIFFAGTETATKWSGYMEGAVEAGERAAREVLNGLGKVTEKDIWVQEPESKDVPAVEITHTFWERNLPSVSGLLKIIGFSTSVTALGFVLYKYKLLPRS
Briefly: Inhibition of recombinant human MAO-A expressed in baculovirus infected BTI insect cells at 10 uM preincubated for 30 mins followed by addition of p-tyramine as substrate measured over 45 mins by Amplex Red MAO assay relative to control. The note with it: 0.75 h.

Assay [7] has as its target T2, Adenosine receptor A2b (Homo sapiens). Briefly: Displacement of [3H]PSB-603 from human A2B receptor expressed in CHO cell membrane at 0.3 uM relative to control. The class given is cell membranes.
Assay [8] deals with T4, Adenosine receptor A2a. The assay is described as follows: Agonist activity at recombinant human A2A receptor expressed in CHO cells assessed as increase in forskolin-induced cAMP level at 10 uM preincubated for 20 mins prior to forskolin-stimulation measure after 5 mins by liquid scintillation counting method. The format is functional, cell-based. Background: Cyclic AMP is a second messenger, typically raised through Gs and lowered through Gi signalling.

Assay [9] has as its target T4, Adenosine receptor A2a. The assay is described as follows: Agonist activity at recombinant human A2A receptor expressed in CHO cells assessed as increase in forskolin-induced cAMP level at 1 uM preincubated for 20 mins prior to forskolin-stimulation measure after 5 mins by liquid scintillation counting method. The class given is functional, cell-based.
In assay [10] the target is T7, Adenosine receptor A1 (Rattus norvegicus, UniProt P25099).
T7 sequence (P25099 whole entry): T5 sequence (whole entry)
Briefly: Displacement of [3H]CCPA from A1 receptor in rat brain cortex membranes by liquid scintillation counting method. The class given is cell membranes.

In assay [11] the target is T3, Adenosine receptor A1 (Homo sapiens). The assay is described as follows: Agonist activity at recombinant human A1 receptor expressed in CHO cells assessed as inhibition of forskolin-induced cAMP accumulation at 10 uM preincubated for 20 mins prior to forskolin-stimulation measure after 5 mins by liquid scintillation counting method. The format is functional, cell-based.

For assay [12] the target is unchanged. Briefly: Agonist activity at recombinant human A1 receptor expressed in CHO cells assessed as inhibition of forskolin-induced cAMP accumulation at 1 uM preincubated for 20 mins prior to forskolin-stimulation measure after 5 mins by liquid scintillation counting method. The format is functional, cell-based.

pKi: −log10 of the molar value. The source made the active and inactive calls. The rule behind the calls is not given here.

T4 sequence (P29274 whole entry): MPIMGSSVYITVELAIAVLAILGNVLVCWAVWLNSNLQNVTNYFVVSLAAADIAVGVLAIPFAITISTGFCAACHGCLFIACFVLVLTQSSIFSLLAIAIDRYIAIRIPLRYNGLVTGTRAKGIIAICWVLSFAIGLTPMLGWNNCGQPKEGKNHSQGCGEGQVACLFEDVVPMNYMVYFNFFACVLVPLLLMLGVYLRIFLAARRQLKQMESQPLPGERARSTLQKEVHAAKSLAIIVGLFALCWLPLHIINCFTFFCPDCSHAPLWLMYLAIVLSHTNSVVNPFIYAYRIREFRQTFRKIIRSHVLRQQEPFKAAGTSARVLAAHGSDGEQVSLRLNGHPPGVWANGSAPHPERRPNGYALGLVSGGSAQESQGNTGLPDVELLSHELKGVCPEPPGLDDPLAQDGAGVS

As usually defined, the pKi is −log10 of the Ki, conventionally taken in molar units. A higher pKi goes with a small Ki. For orientation: inhibition means how much of the control response was suppressed. As to `Cn1c(=O)c2c(nc3n2CCN(c2cccc(Cl)c2)C3)n(C)c1=O`, the Activity in assay [1] was found to be 20%; in assay [2], 23%; in assay [3] it was 37%; in [5], 37%. This compound showed a pKi in assay [4] of 5.05. Besides, the inhibition at 10 µM in [6] amounted to 4%.
Turning to `Cn1c(=O)c2c(nc3n2CCN([C@@H]2CCCc4ccccc42)C3)n(C)c1=O`, the Activity in assay [7] is 1%. The result in [8], in assay [9], in [11] and in assay [12] was inactive. Further, the pKi in assay [10] is 7.00; in [4], 6.23. In addition, the inhibition at 10 µM in [6] turned out to be 14%.
